Results as given in patent US10231939B2, “Hydroxytyrosol and oleuropein compositions for induction of DNA damage, cell death and LSD1 inhibition” (priority 2012, dated 2019).
Where “and” joins values, the source holds several entries; their conditions need not be identical. Identical values can stand only once.

How the values were obtained:
K562 cells = test: mRNA-Sequencing, K562 cells; type: cell-based, human; conditions: 24 hours
Experimental: Cells were seeded at densities of 1×10^6/mL in culture flasks (Nalge Nunc, New York, USA) and treated with hydroxytyrosol (0, 20, 100 μM), for 24 hours at 37° C., 5% (v/v) CO2. mRNA sequencing was performed by TRIZOL extraction and library preparation using Illumina kits according to manufacturer's protocols. Next generation sequencing (NGS) was performed at a depth of approximately 20 million mapped reads per sample to determine the effect of hydroxytyrosol on genome-wide gene expression, in human erythroleukemic K562 cells and human keratinocytes (24 hr treatment, 20 and 100 μM). Reads generated by the Illumina base calling software V1.6 were aligned with Burrows Wheeler Aligner to the human transcriptome database curated by RefSeq (Hg18 build). Raw counts were normalized to adjust for slightly differing data volume across lanes giving the widely used score reads per transcript per million reads. These scores were used to determine relative fold changes and the conventionally used ±1.5 fold-change, which is discernible with qRT-PCR, was defined a significant change in expression. The online program MetaCore (GeneGo Inc. St. Joseph, MI, USA) was used for pathway analysis.
Cells were seeded at densities of 1×10^6/mL in culture flasks (Nalge Nunc, New York, USA) and K562 cells were treated with or without 100 μM hydroxytyrosol for 24 hours at 37° C., 5% (v/v) CO2. mRNA sequencing was performed by TRIZOL extraction and library preparation using Illumina kits according to manufacturer's protocols. Next generation sequencing (NGS) was performed at a depth of approximately 20 million mapped reads per sample. Reads generated by the Illumina base calling software V1.6 were aligned with Burrows Wheeler Aligner to the human transcriptome database curated by RefSeq (Hg18 build). Raw counts were normalized to adjust for slightly differing data volume across lanes giving the widely used score reads per transcript per million reads. These scores were used to determine relative fold changes and the conventionally used ±1.5 fold-change, which is discernible with qRT-PCR, was defined a significant change in expression. The online program MetaCore (GeneGo Inc. St. Joseph, MI, USA) was used for pathway analysis. The Warburg gene-set shown in Table 10 was used to investigate changes in Warburg-related genes in human erythroleukemic compared to normal peripheral blood mononuclear cells and changes in expression of Warburg-related genes following incubation of K562 cells with hydroxytyrosol.

PBMC = test: Western blotting of histone methylation, PBMC; type: cell-based, human; conditions: 100 μM, 24 hours
human keratinocytes = test: γH2AX immunofluorescence, keratinocytes after γ-radiation; type: cell-based; conditions: pre-treatment 24 hours
Experimental: Keratinocytes pre-treated with Formulations 1, 2 and 3 (Table 9) for 24 hours prior to exposure to 0, 2 and 12 Gy (137Cs) and incubated for a further hour; 37° C., 5% (v/v) CO2, before staining for γH2AX as previously described.

[1] = 100 μM HT, negative = down-regulated
[2] = 100 μM HT, negative = down-regulated, listed as hydroxytyrosol
[3] = 100 μM hydroxytyrosol, unsigned

OCCc1ccc(O)c(O)c1 [HT, 4-(2-hydroxyethyl)-1,2-benzenediol]
HDAC9 expression Fold Change (DOWN) (K562 cells; 20 μM HT): 1.82 fold and 2.00 fold | KDM4C expression Fold Change (DOWN) (K562 cells; 20 μM HT): 1.61 fold | NCOA2 expression Fold Change (DOWN) (K562 cells; 20 μM HT): 1.63 fold | PHF8 expression Fold Change (DOWN) (K562 cells; 20 μM HT): 1.62 fold | PRDM1 expression Fold Change (DOWN) (K562 cells; 20 μM HT): 1.68 fold | PRDM6 expression Fold Change (UP) (K562 cells; 20 μM HT): 3.50 fold | PRDM12 expression Fold Change (DOWN) (K562 cells; 20 μM HT): 1.50 fold | PRMT8 expression Fold Change (DOWN) (K562 cells; 20 μM HT): 2.13 fold | EHMT1 expression Fold Change (DOWN) (K562 cells; 100 μM HT): 1.63 fold | GTF3C4 expression Fold Change (DOWN) (K562 cells; 100 μM HT): 1.55 fold | HDAC7 expression Fold Change (DOWN) (K562 cells; 100 μM HT): 1.76 fold and 1.78 fold | HDAC9 expression Fold Change (UP) (K562 cells; 100 μM HT): 2.05 fold and 1.50 fold | KDM4A expression Fold Change (UP) (K562 cells; 100 μM HT): 1.71 fold | KDM4C expression Fold Change (DOWN) (K562 cells; 100 μM HT): 1.66 fold | KDM6B expression Fold Change (UP) (K562 cells; 100 μM HT): 1.70 fold | MLL3 expression Fold Change (DOWN) (K562 cells; 100 μM HT): 1.68 fold | NCOA2 expression Fold Change (DOWN) (K562 cells; 100 μM HT): 1.50 fold | NPM2 expression Fold Change (DOWN) (K562 cells; 100 μM HT): 3.33 fold | PPARGC1A expression Fold Change (UP) (K562 cells; 100 μM HT): 2.00 fold | PRDM6 expression Fold Change (DOWN) (K562 cells; 100 μM HT): 2.00 fold | PRDM9 expression Fold Change (UP) (K562 cells; 100 μM HT): 1.85 fold | PRDM10 expression Fold Change (DOWN) (K562 cells; 100 μM HT): 1.92 fold | PRDM12 expression Fold Change (UP) (K562 cells; 100 μM HT): 2.00 fold | PRDM15 expression Fold Change (DOWN) (K562 cells; 100 μM HT): 1.78 fold | PRMT8 expression Fold Change (DOWN) (K562 cells; 100 μM HT): 1.89 fold | RPS6KA5 expression Fold Change (UP) (K562 cells; 100 μM HT): 1.56 fold | SETD1A expression Fold Change (DOWN) (K562 cells; 100 μM HT): 1.56 fold | SETD7 expression Fold Change (UP) (K562 cells; 100 μM HT): 3.41 fold | SMYD3 expression Fold Change (UP) (K562 cells; 100 μM HT): 1.60 fold and 1.57 fold | ACLY expression Fold Change, K562 + 100 μM HT (K562 cells; [1]): −1.60 fold | AKT3 expression Fold Change, K562 + 100 μM HT (K562 cells; [1]): 2.04 fold | BBC3 expression Fold Change, K562 + 100 μM HT (K562 cells; [1]): 2.66 fold | C12orf5 expression Fold Change, K562 + 100 μM HT (K562 cells; [1]): 3.57 fold | CASP4 expression Fold Change, K562 + 100 μM HT (K562 cells; [1]): 1.87 fold | CASP7 expression Fold Change, K562 + 100 μM HT (K562 cells; [1]): 2.27 fold | CASP8 expression Fold Change, K562 + 100 μM HT (K562 cells; [1]): 1.62 fold | ME1 expression Fold Change, K562 + 100 μM HT (K562 cells; [1]): 2.22 fold | PFKFB2 expression Fold Change, K562 + 100 μM HT (K562 cells; [1]): −1.53 fold | PFKFB4 expression Fold Change, K562 + 100 μM HT (K562 cells; [1]): −1.79 fold | SLC1A4 expression Fold Change, K562 + 100 μM HT (K562 cells; [1]): 4.28 fold | SREBF1 expression Fold Change, K562 + 100 μM HT (K562 cells; [1]): −1.69 fold | TFR2 expression Fold Change, K562 + 100 μM HT (K562 cells; [1]): −1.90 fold | TP53 expression Fold Change, K562 + 100 μM HT (K562 cells; [1]): 2.30 fold | VEGFA expression Fold Change, K562 + 100 μM HT (K562 cells; [1]): 2.65 fold | BBC3 expression Fold Change, K562 + 100 μM HT (K562 cells; [2]): 2.29 fold | CASP7 expression Fold Change, K562 + 100 μM HT (K562 cells; [2]): 2.01 fold | TP53 expression Fold Change, K562 + 100 μM HT (K562 cells; [2]): 1.91 fold | differentially expressed Warburg-related genes reversing expression towards that observed in PBMC cells (K562 cells; 100 μM hydroxytyrosol): 87% | ACLY down-regulated, fold change (K562 cells; [3]): 1.59 fold | PFKB2 down-regulated, fold change (K562 cells; [3]): 1.53 fold | PFKFB4 down-regulated, fold change (K562 cells; [3]): 1.79 fold | transferrin receptor 2 (TRF2) down-regulated (K562 cells; [3]): 1.9 fold | differential expression of the Warburg-related genes regulated in K562 vs PBMC (K562 cells; 100 μM hydroxytyrosol, share of the 51 genes): 30% | histone H3 lysine 9 (H3K9) di-methylation (PBMC): decreased | radiation-induced DNA damage (human keratinocytes): protects
